Legend:
NCI-H929 cells = experiment: BCMA expression by flow cytometry after GSI incubation, NCI-H929; type: cell-based; conditions: NCI-H929, 1 μM DAPT for 24 hrs vs untreated
Molp-8 cells = experiment: BCMA expression by flow cytometry after GSI incubation, Molp-8; type: cell-based
FcγRIII [1] = experiment: FcγRIII signaling ADCC reporter bioassay, NCI-H929 target cells; type: cell-based; conditions: NCI-H929 bound with antibody dose titrations, +/- DAPT, CD16A-Jurkat effector cells 6:1
Description: (§1) NCI-H929 or Molp-8 MM target cells were incubated with and without 1 μM DAPT for 24 hrs. […] FcγRIII signaling was determined using a surrogate assay as manufacturer describes (Promega ADCC reporter bioassay cat #G9302). Cells were bound with antibody dose titrations+/−GSI for 30 minutes at 37° C. CD16A-Jurkat effector cells were then added with a 6:1 effector-to-target cell ratio. After an overnight incubation, the assay was developed with Bio-Glo and relative luminescence units (RLU) were measured on an Envision plate reader. […] Enhanced signaling is the first step in the primary mechanism of action of SEA-BCMA. This signaling can translate to increased anti-MM cell lysis through ADCC.

FcγRIII [2] = experiment: FcγRIII signaling ADCC reporter bioassay, Molp-8 target cells; type: cell-based; conditions: Molp-8 bound with antibody dose titrations, +/- DAPT, CD16A-Jurkat effector cells 6:1
Description: as §1

U266 = experiment: BCMA expression by flow cytometry after Nirogacestat, U266; type: cell-based; conditions: U266, after incubation with Nirogacestat (FIG. 9A)
NF-κB p65 = NF-κB p65 activity ELISA on nuclear extract; type: cell-based; conditions: NCI-H929, serum-starved, 0.2 μM Nirogacestat 16 hrs, +/- 1 μg/ml APRIL
Description: The secondary mechanism of action of SEA-BCMA is to block BCMA proliferative cell signaling. Increased BCMA from GSI treatment is expected to induce increased BCMA signaling. Therefore, the block of this enhanced signaling by SEA-BCMA was tested. BCMA-expressing NCI-H929 cells were serum-starved with and without 0.2 μM Nirogacestat (purchased from SelleckChem) for 16 hrs. Cells were then bound with and without 20 μg/mL SEA-BCMA and incubated with and without 1 μg/ml recombinant human APRIL (R&D Systems) for 20 minutes at 37° C. in the presence or absence of 0.2 μM Nirogacestat. 1 μg of nuclear extract was assayed in duplicate for NF-κB p65 activity by ELISA (TransAM NFκB Chemi p65, Active Motif).

[3] = tested on: MM1R myeloma target cells; experiment: PBMC-mediated MM1R target cell killing, second experiment (PBMC pretreated 5 days, 0.5 μM pomalidomide); type: cell-based; conditions: PBMC:MM1R 10:1, overnight, with or without 0.5 μM pomalidomide
Description: (§2) Experiments were performed to test whether SEA-BCMA combines effectively with pomalidomide in vitro by combining PBMC effector cells with MM1R target cells treated with both pomalidomide and SEA-BCMA or antibody controls. The first experiment (FIG. 12A) benchmarks against MM standard of care elotuzumab and nonfucosylated parent BCMA antibody. The second experiment (FIG. 12B) benchmarks against MM standard of care daratumumab. MM1R target cells express 15,000 copies of BCMA, 12,000 copies of CS1 (elotuzumab target), and 36,000 copies of CD38 (daratumumab target).
In the second experiment (FIG. 12B), normal donor PBMCs of the FcγRIII V/F genotype were treated with or without 0.5 μM pomalidomide (APEx Bio, cat #A4211) for 5 days. The resulting PBMCs were then washed and mixed with CFSE (Invitrogen cat #V12883) labeled MM1R myeloma target cells at an effector-to-target cell ratio of 10:1. The mixture was then treated with a dose range of the following antibodies: SEA-BCMA, daratumumab, or non-binding hIgG1k antibody control (Sigma cat #15154) with or without 0.5 μM pomalidomide (APEx Bio, cat #A4211) and incubated overnight. Percentage live MM1R cells were then determined using the viability dye 7-AAD (BD Biosciences, cat #559925) by flow cytometry.

[4] = tested on: MM1R myeloma target cells; experiment: PBMC-mediated MM1R target cell killing, first experiment (48 hrs, 3 μM pomalidomide); type: cell-based; conditions: PBMC:MM1R 10:1, 48 hrs, with or without 3 μM pomalidomide
Description: as §2
In the first experiment (FIG. 12A), normal donor PBMCs of the FcγRIII V/F genotype were mixed with CFSE (Invitrogen cat #V12883) labeled MM1R myeloma target cells at an effector-to-target cell ratio of 10:1. The mixture was treated with a dose range of the following antibodies: SEA-BCMA, elotuzumab, WT-BCMA (fucosylated parent Ab), or non-binding hIgG1k antibody control (Sigma cat #15154) with or without 3 μM pomalidomide (APEx Bio, cat #A4211). After 48 hrs, the % live MM1R cells were then determined using the viability dye 7-AAD (BD Biosciences, cat #559925) by flow cytometry.

[5] = molecular target: T1, human BCMA (B-cell maturation antigen) (human, UniProt Q02223 1-184); experiment: in vitro cell binding capacity assay, flow cytometry on MM1R cells
T1 construct: Endogenous BCMA on MM1R and NCI-H929 cell lines and on patients' multiple myeloma cells; also called membrane BCMA; cell-surface BCMA
T1 sequence: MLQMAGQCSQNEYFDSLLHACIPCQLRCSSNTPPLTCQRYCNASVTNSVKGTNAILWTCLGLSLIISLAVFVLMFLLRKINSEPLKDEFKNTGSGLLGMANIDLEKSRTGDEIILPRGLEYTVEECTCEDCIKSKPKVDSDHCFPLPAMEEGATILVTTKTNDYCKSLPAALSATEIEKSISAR

[6] = molecular target: T1, human BCMA (B-cell maturation antigen); experiment: flow cytometry on MM cells from bone marrow aspirates

## C[C@H](NC(=O)Cc1cc(F)cc(F)c1)C(=O)N[C@H](C(=O)OC(C)(C)C)c1ccccc1 [DAPT]
NCI-H929 cells
  BCMA expression: increased BCMA expression
Molp-8 cells; Molp-8, 1 μM DAPT for 24 hrs vs untreated
  BCMA expression: increased BCMA expression
FcγRIII [1]
  FcγRIII signaling: increased FcγRIII signaling
FcγRIII [2]
  FcγRIII signaling: increased FcγRIII signaling

## CCC[C@H](N[C@H]1CCc2cc(F)cc(F)c2C1)C(=O)Nc1cn(C(C)(C)CNCC(C)(C)C)cn1 [Nirogacestat]
Molp-8 cells; Molp-8, Nirogacestat treated vs untreated (FIG. 9A legend)
  BCMA expression: increased BCMA expression
U266
  BCMA expression: increased BCMA expression
NF-κB p65
  NF-κB signaling (p65 activity, RLU): increased NF-κB signaling

## Daratumumab: anti-CD38 antibody, MM standard of care [reference compound]
[3]
  MM1R target cell killing (percentage live MM1R cells): less activity than SEA-BCMA

## Elotuzumab: MM standard of care antibody; target CS1 [reference compound]
[4]
  MM1R target cell killing (% live MM1R cells): no impact on cells unless pomalidomide was added

B1: SEA-BCMA (antibody, human IgG1, kappa, V domains shown)
VH: QVQLVQSGAEVKKPGASVKLSCKASGYTFTDYYIHWVRQAPGQGLEWIGYINPNSGYTNYAQKFQGRATMTADKSINTAYVELSRLRSDDTAVYFCTRYMWERVTGFFDFWGQGTMVTVSS
VL: DIQMTQSPSSVSASVGDRVTITCLASEDISDDLAWYQQKPGKAPKVLVYTTSSLQSGVPSRFSGSGSGTDFTLTISSLQPEDFATYFCQQTYKFPPTFGGGTKVEIKR
notes: also called non-fucosylated monoclonal anti-BCMA antibody
[5]
  binding result: binds

B2: APRIL (a proliferation-inducing ligand) (ligand, human, UniProt O75888 105-250, looked up)
chain: AVLTQKQKKQHSVLHLVPINATSKDDSDVTEVMWQPALRRGRGLQAQGYGVRIQDAGVYLLYSQVLFQDVTFTMGQVVSREGQGRQETLFRCIRSMPSHPDRAYNSCYSAGVFHLHQGDILSVIIPRARAKLNLSPHGTFLGFVKL
[6]
  binding result: binds
